Assay results from publication PMC7377239, “Cardiovascular Effects of Polychlorinated Biphenyls and Their Major Metabolites” (Environmental Health Perspectives, 2020).
Where a name gives a salt, the structure may show the parent alone. Read-outs that look alike come from different tables or passages of the source.

Test system: iCell cardiomyocytes (human iPSC-derived cardiomyocytes)
Assay: Intracellular Ca2+ flux / beating parameters in iCell cardiomyocytes (FLIPR tetra), 90 min or 24 h
Assay type: cell-based
Conditions: Homo sapiens, Cardiomyocyte, 0.00 µM = 100.00; for activity at 0.1 µM: 0.10 µM
Summary of the method: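 PODs were defined as the concentration crossing one SD of the vehicle-control means (0.5% DMSO) on four-parameter logistic fits of Ca2+ trace metrics (peak height, frequency, peak-spacing CV, decay/rise ratio). Traces came from 100 s, 8 Hz FLIPR reads at 37 °C on calcium-dye-loaded iCell cardiomyocytes. Before reading, cells were treated for 90 min or 24 h from 5× chemical plates spanning 0.05–500 µM, in triplicate.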

[1] = 1.5 h, 90min, read-out: cm.amp.avg.90min
[2] = 1.5 h, 90min, read-out: cm.amp.cv.90min
[3] = 1.5 h, 90min, read-out: cm.bpm.90min
[4] = 1.5 h, 90min, read-out: cm.decay.rise.90min
[5] = 1.5 h, 90min, read-out: cm.spacing.cv.90min
[6] = 24 h, 24hrs, read-out: cm.amp.avg.24hrs
[7] = 24 h, 24hrs, read-out: cm.amp.cv.24hrs
[8] = 24 h, 24hrs, read-out: cm.bpm.24hrs
[9] = 24 h, 24hrs, read-out: cm.decay.rise.24hrs
[10] = 24 h, 24hrs, read-out: cm.spacing.cv.24hrs

What does the source list for `O=S(=O)(O)Oc1cc(Cl)c(-c2cc(Cl)ccc2Cl)cc1Cl` [4-yl PCB 52 sulfate]?
activity at 0.01 µM [1]: 103%; activity at 0.01 µM [2]: 105%; activity at 0.01 µM [3]: 102%; activity at 0.01 µM [4]: 101%; activity at 0.01 µM [5]: 100%; activity at 0.1 µM [1]: 113%; activity at 0.1 µM [2]: 86.3%; activity at 0.1 µM [3]: 103%; activity at 0.1 µM [4]: 90.8%; activity at 0.1 µM [5]: 101%; activity at 1 µM [1]: 102%; activity at 1 µM [2]: 104%; activity at 1 µM [3]: 100%; activity at 1 µM [4]: 97.7%; activity at 1 µM [5]: 97.4%; activity at 10 µM [1]: 98.4%; activity at 10 µM [2]: 103%; activity at 10 µM [3]: 97.8%; activity at 10 µM [4]: 97.1%; activity at 10 µM [5]: 104%; activity at 100 µM [1]: 0%; activity at 100 µM [2]: 0%; activity at 100 µM [3]: 0%; activity at 100 µM [4]: 0%; activity at 100 µM [5]: 0%; activity at 0.01 µM [6]: 128%; activity at 0.01 µM [7]: 103%; activity at 0.01 µM [8]: 97.4%; activity at 0.01 µM [9]: 104%; activity at 0.01 µM [10]: 107%; activity at 0.1 µM [6]: 135%; activity at 0.1 µM [7]: 70.5%; activity at 0.1 µM [8]: 94.5%; activity at 0.1 µM [9]: 109%; activity at 0.1 µM [10]: 110%; activity at 1 µM [6]: 147%; activity at 1 µM [7]: 69.4%; activity at 1 µM [8]: 95.5%; activity at 1 µM [9]: 104%; activity at 1 µM [10]: 91.9%; activity at 10 µM [6]: 167%; activity at 10 µM [7]: 68.9%; activity at 10 µM [8]: 92.6%; activity at 10 µM [9]: 98.8%; activity at 10 µM [10]: 111%; activity at 100 µM [6]: 0%; activity at 100 µM [7]: 0%; activity at 100 µM [8]: 0%; activity at 100 µM [9]: 0%; activity at 100 µM [10]: 0%
